Laboratory results as given in US20080076129A1, “Method of Detecting an Increased Susceptibility to Breast Cancer” (priority 2000, published 2008).
Positions count from the first letter of the chain named. One block for each molecule: values may come before it.

Experiments:
COMT = molecular target: T1, COMT (Homo sapiens, UniProt P21964); assay: Assay of COMT activity, purified recombinant His-COMT, methylation of catechol estrogens; assay type: biochemical; conditions: for Km: formation of the named product from its catechol estrogen, recombinant His-COMT, 200 μM SAM, 10 min at 37° C.; for kcat: formation of the named product, in min-1 (unit assumed); for Hill Coefficient: sigmoidal fit; for pattern of rates of methylation: substrate 2-100 μM; for formation of product by COMT: methylation of 4-OHE2 and 4-OHE1
T1 construct: made in house; host or cells: Escherichia coli DH5αF′Iq
T1 sequence (P21964 51-271): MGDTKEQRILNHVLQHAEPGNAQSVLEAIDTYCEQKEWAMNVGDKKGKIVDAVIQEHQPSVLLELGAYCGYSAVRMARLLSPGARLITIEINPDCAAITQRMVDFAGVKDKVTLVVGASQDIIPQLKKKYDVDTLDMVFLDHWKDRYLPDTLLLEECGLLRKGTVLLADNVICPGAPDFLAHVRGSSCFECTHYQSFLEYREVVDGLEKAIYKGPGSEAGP
Experimental: Assay of COMT Activity. Purified recombinant His-COMT (300 pmol) was reconstituted 0.5 ml of 100 mM KPO4, pH 7.4, containing 5 mM MgCl2, 10 mM β-mercaptoethanol, and 200 μM SAM. Reactions were initiated by adding varying concentrations of each individual catechol estrogen (2, 3, 6, 9, 12, 15, 20, 40, 60, 80, and 100 μM). Blanks contained all compounds except SAM. Reactions proceeded for 10 min at 37° C. with gentle shaking and then were terminated by addition of 2 ml CH2Cl2. To determine COMT activity in breast cancer cells, ZR-75 and MCF-7 cells were harvested at confluency and homogenized in 100 mM KPO4, pH 7.4, 5 mM MgCl2, 10 mM β-mercaptoethanol. Following ultracentrifugation of the cell homogenate (110,000 g, 30 min, 4° C.), the supernatant cytosol was divided into aliquots for ICELISA, protein determination (BCA assay; Pierce, Rockford, Ill.), and COMT assay. The latter was carried out in the presence of 200 μM SAM and 100 μM catechol estrogen for 20 min at 37° C. and then terminated by addition of CH2Cl2. The concentration of endogenous catechol and methoxy estrogens was below the limit of detection by gas chromatography/mass spectrometry.
Extraction and Gas Chromatography/Mass Spectrometry Analysis of Catechol Estrogens. A deuterated internal standard (100 μl of 8 mg/liter E2-d4 in methanol) was added and all estrogens extracted into the CH2Cl2 by vortex mixing for 30 s. 1.5 ml of the CH2Cl2 fraction was evaporated to dryness under air and volatile TMS derivatives prepared by heating the residue with 100 μl of 50% NO-bis(trimethylsilyl)trifluoroacetamide/1% trimethyl chlorosilane in acetonitrile at 56° C. for 30 min. The TMS derivatives of the estrogen metabolites were separated by gas chromatography (H-P 5890, Hewlett-Packard, Wilmington, Del.) on a 5% phenyl methyl silicone stationary phase fused silica capillary column (30 m×0.2 mm×0.5 μm film, HP5; Hewlett-Packard). Helium carrier gas was used at a flow of 1 ml/min. The injector was operated at 250° C., with 2 μl injected in the splitless mode, with a purge (60 ml/min helium) time of 0.6 min. The oven temperature was held at 180° C. for 0.5 min, then raised at 6° C./min to 250° C. where it was held for 17 min, then raised to 300° C. at 8° C./min to give a total run time of 35.42 min. This program permitted adequate separation of a wide range of estrogen metabolites. Retention times (in min) for the TMS derivatives were E1 20.13, E2 and E2-d4 21.89, 4-MeOE1 23.52, 2-MeO-3-MeOE1 (underivatized) 23.75, 2-OH-3-MeOE1 24.87, 2-MeOE1 25.2, 4-MeOE2 25.78, 2-OHE1 and 2-MeO-3-MeOE2 26.19, 2-OH-3-MeOE2 26.9, 2-MeOE2 27.18, 4-OHE1 27.27, 6α-OHE2 27.29, 2-OHE2 27.44, 4-OHE2 28.06, E3 28.38. The EI mass spectrometer (H-P 5970) was operated in the selected ion monitoring mode from 18 to 30 min. Ions monitored were TMS-E1 342, 257, 343; TMS2-E2-d4 420, 421, 287; TMS2-E2 416, 417, 285; TMS-4-MeOE1, TMS-2-OH-3-MeOE1, TMS-2-MeOE1 and TMS-3-MeO-4-OHE1 372, 373, 342; 2-MeO-3-MeOE1 314, 315, 229; TMS2-4-MeOE2, TMS2-2-OH-3-MeOE2, TMS2-2-MeOE2 and TMS2-3-MeO-4-OHE2 446, 447, 315; TMS2-2-OHE1 430, 431, 432; TMS-2-MeO-3-MeOE2 388, 389, 257; TMS2-4-OHE1 430, 431, 345; TMS2-6α-OHE2 414, 283, 309; TMS3-2-OHE2 and TMS3-4-OHE2 504, 505, 373; TMS3-E3 504, 505, 311 (FIG. 7). The instrument was calibrated by simultaneous preparation of an 11-point calibration over the range 0-22 nmol/tube of each compound. Sensitivity was determined to be between 0.02 and 0.04 nmol/tube (400-800 fmol on column) for the various compounds. […] Absolute extraction efficiency for E2, 2-OH-E2 and 4-OH-E2 at 3.5 nmol/tube was 119, 96, and 107% assessed by comparison to injections of spiked solvent samples onto the gas chromatograph. Internal standard added prior to extraction compensated for deviation from 100% recovery for all investigated compounds.
Statistical Analysis. […]

renal DNA = conditions: in vivo; cited from earlier work
DNA = conditions: cited from earlier work
Syrian hamster = conditions: in vivo; cited from earlier work
CYP1B1 = assay: Assay of CYP1B1 E2 hydroxylation activity; assay type: biochemical, human; conditions: for 2-OH-Estradiol kcat: E2 2-hydroxylation; for 4-OH-Estradiol kcat: E2 4-hydroxylation; for 16a-OH-Esrradiol kcat: E2 16α-hydroxylation
Experimental: Assay of CYP1B1 E2 Hydroxylation Activity. Purified CYP1B1 (200 pmol) was reconstituted with a 2-fold molar amount of recombinant rat NADPH-P450 reductase (400 pmol), purified as previously described, and 60 μg of L-α-dilauroyl-sn-glycero-3-phosphocholine in the presence of sodium cholate (0.005%, w/v) in 0.4 ml of 100 mM potassium phosphate buffer, pH 7.4, containing varying concentrations of E2 (2, 3, 6, 9, 12, 15, 20, 40, 60, 80, and 100 μM) and 1 mM ascorbate. An NADPH-generating system consisting of 5 mM glucose 6-phosphate and 0.5 U of glucose-6-phosphate dehydrogenase/ml was added and reactions initiated by adding NADP+ to a final concentration of 0.5 mM. Reactions proceeded for 10 min at 37° C. with gentle shaking and then were terminated by addition of 2 ml CH2Cl2.
Extraction and Gas Chromatography/Mass Spectrometry Analysis of E2 and Metabolites. A deuterated internal standard (100 μl of 8 mg/liter E2-2, 4, 16, 16-d4 in methanol; CDN Isotopes, Pointe-Claire, Quebec) was added and all steroids extracted into CH2Cl2 by vortex mixing for 30 s. 1.5 ml of the CH2Cl2 fraction was evaporated to dryness under air and volatile TMS derivatives prepared by heating the residue with 100 μl of 50% NO-bis(trimethylsilyl)trifluoroacetamide/1% trimethyl chlorosilane in acetonitrile at 56° C. for 30 min. The TMS derivatives of E2 and its metabolites were separated by gas chromatography (H-P 5890, Hewlett-Packard, Wilmington, Del.) on a 5% phenyl methyl silicone stationary phase fused silica capillary column (30 m×0.2 mm×0.5 μm film, HP5; Hewlett-Packard). Helium carrier gas was used at a flow of 1 ml/min. The injector was operated at 250° C., with 2 μl injected in the splitless mode, with a purge (60 ml/min helium) time of 0.6 min. The oven temperature was held at 189° C. for 0.5 min, then raised at 6° C./min to 250° C. where it was held for 17 min, then raised to 300° C. at 8° C./min to give a total run time of 35.42 min. […] The EI mass spectrometer (H-P 5970) was operated in the selected ion monitoring mode from 18 to 34 min. Ions monitored were TMS2-E2-d4 420, 288, 330; TMS2-E2 416, 285, 326; TMS3-2-OH-E2 504, 373; TMS3-4-OH-E2 504, 373, 325; TMS3-16α-OH-E2 345, 311, 504. The instrument was calibrated by simultaneous preparation of an 11-point calibration over the range […]/tube of each compound. […] Internal standard added prior to extraction compensated for deviation from 100% recovery.
Statistical Analysis. Kinetic parameters (Km and kcat) were determined by nonlinear regression analysis using the computer program GraphPad PRISM (San Diego, Calif.).

Molecule: C[C@]12CC[C@@H]3c4ccc(O)c(O)c4CC[C@H]3[C@@H]1CC[C@@H]2O [4-OHE2]
levels of the oxidized base 8-hydroxy-deoxyguanosine (renal DNA): significantly increased
DNA single-strand breaks (DNA): induced DNA single-strand breaks
induction of renal cancer (Syrian hamster): induced renal cancer
pattern of rates of methylation (COMT): sigmoid curve pattern

Molecule: COc1cc2c(cc1O)CC[C@@H]1[C@@H]2CC[C@]2(C)[C@@H](O)CC[C@@H]12 [2-MeOE2]
Km (COMT): 108 ± 9 µM
kcat (COMT): 6.8 ± 0.4

Molecule: COc1cc2c(cc1O)[C@H]1CC[C@]3(C)[C@@H](O)CC[C@H]3[C@@H]1CC2 [2-OH-3-MeOE2]
Km (COMT): 51 ± 5 µM
kcat (COMT): 1.5 ± 0.1

Molecule: C[C@]12CC[C@@H]3c4cc(O)c(O)cc4CC[C@H]3[C@@H]1CC[C@@H]2O [2-OHE2]
levels of the oxidized base 8-hydroxy-deoxyguanosine (renal DNA): did not cause oxidative DNA damage
DNA single-strand breaks (DNA): negligible effect
pattern of rates of methylation (COMT): typical hyperbolic patterns

B1: Variant 4: recombinant CYP1B1 with 48Arg, 119Ala, 432Val, 453Ser (protein, UniProt Q16678 1-543, looked up, variant N453S)
Cytochrome P450 1B1: MGTSLSPNDPWPLNPLSIQQTTLLLLLSVLATVHVGQRLLRQRRRQLRSAPPGPFAWPLIGNAAAVGQAAHLSFARLARRYGDVFQIRLGSCPIVVLNGERAIHQALVQQGSAFADRPAFASFRVVSGGRSMAFGHYSEHWKVQRRAAHSMMRNFFTRQPRSRQVLEGHVLSEARELVALLVRGSADGAFLDPRPLTVVAVANVMSAVCFGCRYSHDDPEFRELLSHNEEFGRTVGAGSLVDVMPWLQYFPNPVRTVFREFEQLNRNFSNFILDKFLRHCESLRPGAAPRDMMDAFILSAEKKAAGDSHGGGARLDLENVPATITDIFGASQDTLSTALQWLLLLFTRYPDVQTRVQAELDQVVGRDRLPCMGDQPNLPYVLAFLYEAMRFSSFVPVTIPHATTANTSVLGYHIPKDTVVFVNQWSVNHDPLKWPNPENFDPARFLDKDGLISKDLTSRVMIFSVGKRRCIGEELSKMQLFLFISILAHQCDFRANPNEPAKMNFSYGLTIKPKSFKVNVTLRESMELLDSAVQNLQAKETCQ
2-OH-Estradiol kcat (CYP1B1): 0.0467 ± 0.0033 s⁻¹
4-OH-Estradiol kcat (CYP1B1): 0.075 ± 0.005 s⁻¹
16a-OH-Esrradiol kcat (CYP1B1): 0.0065 ± 0.00033 s⁻¹

B2: Variant 2: recombinant CYP1B1 with 48Arg, 119Ser, 432Val, 453Asn (protein, UniProt Q16678 1-543, looked up, variant A119S)
Cytochrome P450 1B1: B1 Cytochrome P450 1B1 with A119S, S453N
2-OH-Estradiol kcat (CYP1B1): 0.0383 ± 0.0017 s⁻¹
4-OH-Estradiol kcat (CYP1B1): 0.0633 ± 0.0017 s⁻¹
16a-OH-Esrradiol kcat (CYP1B1): 0.00567 ± 0.00033 s⁻¹

B3: Variant 1: recombinant CYP1B1 with 48Gly, 119Ala, 432Val, 453Asn (protein, UniProt Q16678 1-543, looked up, variant R48G)
Cytochrome P450 1B1: B1 Cytochrome P450 1B1 with R48G, S453N
2-OH-Estradiol kcat (CYP1B1): 0.0533 ± 0.0033 s⁻¹
4-OH-Estradiol kcat (CYP1B1): 0.1 ± 0.0033 s⁻¹
16a-OH-Esrradiol kcat (CYP1B1): 0.00933 ± 0.00067 s⁻¹

Now from value to molecule, other results behind:

Km (COMT): 24 ± 3 µM
kcat (COMT): 3.4 ± 0.2
Hill Coefficient (COMT): 1.6 ± 0.2
Molecule: COc1c(O)ccc2c1CC[C@@H]1[C@@H]2CC[C@]2(C)[C@@H](O)CC[C@@H]12 [4-MeOE2]

Km (COMT): 53 ± 6 µM
kcat (COMT): 6.7 ± 0.4
Hill Coefficient (COMT): 2.0 ± 0.4
Molecule: COc1c(O)ccc2c1CC[C@@H]1[C@@H]2CC[C@]2(C)C(=O)CC[C@@H]12 [4-MeOE1]

pattern of rates of methylation (COMT): sigmoid curve pattern
Molecule: C[C@]12CC[C@@H]3c4ccc(O)c(O)c4CC[C@H]3[C@@H]1CCC2=O [4-OHE1]
levels of the oxidized base 8-hydroxy-deoxyguanosine (renal DNA): significantly increased
induction of renal cancer (Syrian hamster): induced renal cancer

formation of product by COMT (COMT): not observed
Molecule: COc1ccc2c(c1O)CC[C@@H]1[C@@H]2CC[C@]2(C)C(=O)CC[C@@H]12 [3-MeO-4-OHE1]

Km (COMT): 74 ± 8 µM
kcat (COMT): 3.3 ± 0.2
Molecule: COc1cc2c(cc1O)CC[C@@H]1[C@@H]2CC[C@]2(C)C(=O)CC[C@@H]12 [2-MeOE1]

Km (COMT): 73 ± 16 µM
kcat (COMT): 2.8 ± 0.4
Molecule: COc1cc2c(cc1O)[C@H]1CC[C@]3(C)C(=O)CC[C@H]3[C@@H]1CC2 [2-OH-3-MeOE1]

pattern of rates of methylation (COMT): typical hyperbolic patterns
Molecule: C[C@]12CC[C@@H]3c4cc(O)c(O)cc4CC[C@H]3[C@@H]1CCC2=O [2-OHE1]

formation of product by COMT (COMT): not observed
Molecule: COc1ccc2c(c1O)CC[C@@H]1[C@@H]2CC[C@]2(C)[C@@H](O)CC[C@@H]12 [3-MeO-4-OHE2]
